Source: patent US9265781B2, “Process for producing a particulate composition comprising anhydrous crystalline 2-O-alpha-D-glucosyl-L-ascorbic acid” (HAYASHIBARA CO., LTD., priority 2009, dated 2016)

Tests used:
Type in all cases: physicochemical
[1] = Solubility in hydrophilic solvent, 30% 1,3-butylene glycol (Experiment 6); conditions: same test as in Experiment 6
From the text: Any one of the above test samples and the particulate compositions of Examples 1 to 4 was weighed 0.25 g and placed in “FALCON TUBE 2059”, a product name of a 14-ml polypropylene cylindrical tube having a hemispherical bottom shape and a cap, commercialized by Becton, Dickinson and Company, New Jersey, USA. […]

[2] = Caking test (Experiment 1-4); set-up: key: “Caked”, (+): Sample clearly keeps the hemispherical shape of the bottom of the tube even when placed on the plate; “Slightly caked”, (±): Sample slightly but distinguishably shows the hemispherical shape of the bottom of the tube; “Not caked” (−): Sample does not keep the hemispherical shape of the bottom of the tube; conditions: 1 g in 14-ml polypropylene tube, 50° C., 24 hours, macroscopic observation
Experimental: The following experiment was performed to investigate the caking of respective Test samples 1 to 4: One gram aliquots of each of Test samples 1 to 4, prepared in Experiment 1-1, were separately filled into “FALCON TUBE 2059”, a product name of a 14-ml polypropylene cylindrical tube (1.7 cm in diameter, 10 cm in height) having a hemispherical bottom shape and a cap, commercialized by Becton, Dickinson and Company, New Jersey, USA. The tubes were uprightly set to a tube rack and allowed to stand for 24 hours, after the tube rack was placed in “IC-410”, a product name of an incubator commercialized Advantec Toyo Kaisha, Ltd., Tokyo, Japan, controlled at 50° C. After the incubation, the tubes were taken out from the incubator, followed by removing each cap, taking out each test sample from each tube to place it on a black-plastic-plane plate by turning the tubes upside down slowly, and macroscopically observing the conditions of the resulting test samples.

[3] = Storage stability test (Experiment 3-2); set-up: key: “Caked” (+), clump(s) is/are detected in a test sample and the flowability of the test sample has lowered in comparison with that at the initiation of the test; “Not caked” (−), no clump is detected in a test sample and the flowability of the test sample has not been changed in comparison with that at the initiation of the test; conditions: 10 kg in open polyethylene-double-bag in uncapped steel can, 45 days; flowability and caked state
From the text: To confirm that the caking test conducted in Experiment 1-4, etc., is a proper test for evaluating the caking of a particulate composition containing anhydrous crystalline ascorbic acid 2-glucoside when actually stored, Test sample 1 obtained in Experiment 1-1, Test samples 10 to 15 obtained in Experiment 3-1, and Test sample 16 were subjected to a storage stability test which was designed by taking account of conditions, environment, and period of time for actual storage of a particulate composition containing anhydrous crystalline ascorbic acid 2-glucoside.
Ten kilogram aliquots of any of Test samples 1 and 10 to 16 were respectively weighed and placed in a polyethylene-double-bag (800 mm by 600 mm) for each test sample. Then, each bag was placed in a 18-liter steel can in such a manner of allowing the opening part of each bag to open and stand upright without closing the opening part, allowing the bags to stand without capping the steel cans, and storing for 45 days in a room away from a relatively high temperature and humidity. After 45 days storage, each polyethylene-double-bag enclosing any of the test samples was taken out from the cans, and the samples were taken out from the bags and placed on a black-plastic-plane-plate for macroscopic observation of their flowabilities and caked states.
The test samples were judged about their caking by the following criteria: “Caked” (+), clump(s) is/are detected in a test sample and the flowability of the test sample has lowered in comparison with that at the initiation of the test; and “Not caked” (−), no clump is detected in a test sample and the flowability of the test sample has not been changed in comparison with that at the initiation of the test. The storage form of each test sample in the storage stability test is the same as that of a quasi-drug-grade powder that is commercially distributed and stored, except for not closing the opening part of the bag with a rubber band, not putting in any desiccant, and being stored in a steel can without closing it with a lid. The above three differences were of those, which had been set as a storage environment for a storage test that was slightly harder than an actual storage environment, to expedite the test results. The results are in Table 3 in parallel.

Row | Structure (SMILES) | Solubility in 1,3-butylene glycol (judgement in words) [1] | Caking [2] | Storage stability [3]
1 | O=C1O[C@H]([C@@H](O)CO)C(O)=C1O[C@H]1O[C@H](CO)[C@@H](O)[C@H](O)[C@H]1O [Comparative Example 1, 2-O-α-D-glucosyl-L-ascorbic acid] | Passable solubility | + | 
2 | O=C1O[C@H]([C@@H](O)CO)C(O)=C1O[C@H]1O[C@H](CO)[C@@H](O)[C@H](O)[C@H]1O [Comparative Example 2, 2-O-α-D-glucosyl-L-ascorbic acid] | Passable solubility | + | 
3 | O=C1O[C@H]([C@@H](O)CO)C(O)=C1O[C@H]1O[C@H](CO)[C@@H](O)[C@H](O)[C@H]1O [Example 1, 2-O-α-D-glucosyl-L-ascorbic acid] |  | − | −
4 | O=C1O[C@H]([C@@H](O)CO)C(O)=C1O[C@H]1O[C@H](CO)[C@@H](O)[C@H](O)[C@H]1O [Example 2, 2-O-α-D-glucosyl-L-ascorbic acid] |  | − | −
5 | O=C1O[C@H]([C@@H](O)CO)C(O)=C1O[C@H]1O[C@H](CO)[C@@H](O)[C@H](O)[C@H]1O [Example 3, 2-O-α-D-glucosyl-L-ascorbic acid] |  | − | −
6 | O=C1O[C@H]([C@@H](O)CO)C(O)=C1O[C@H]1O[C@H](CO)[C@@H](O)[C@H](O)[C@H]1O [Example 4, 2-O-α-D-glucosyl-L-ascorbic acid] |  | − | −
7 | O=C1O[C@H]([C@@H](O)CO)C(O)=C1O[C@H]1O[C@H](CO)[C@@H](O)[C@H](O)[C@H]1O [Example 5, 2-O-α-D-glucosyl-L-ascorbic acid] | Passable solubility | − | 
8 | O=C1O[C@H]([C@@H](O)CO)C(O)=C1O[C@H]1O[C@H](CO)[C@@H](O)[C@H](O)[C@H]1O [Example 6, 2-O-α-D-glucosyl-L-ascorbic acid] | Passable solubility | − | 
9 | O=C1O[C@H]([C@@H](O)CO)C(O)=C1O[C@H]1O[C@H](CO)[C@@H](O)[C@H](O)[C@H]1O [Example 7, 2-O-α-D-glucosyl-L-ascorbic acid] | Passable solubility | − | 
10 | O=C1O[C@H]([C@@H](O)CO)C(O)=C1O[C@H]1O[C@H](CO)[C@@H](O)[C@H](O)[C@H]1O [Example 8, 2-O-α-D-glucosyl-L-ascorbic acid] | Passable solubility | − and ± | 
11 | O=C1O[C@H]([C@@H](O)CO)C(O)=C1O[C@H]1O[C@H](CO)[C@@H](O)[C@H](O)[C@H]1O [Example for Reference 1, 2-O-α-D-glucosyl-L-ascorbic acid] | Impassable solubility | − | −
12 | O=C1O[C@H]([C@@H](O)CO)C(O)=C1O[C@H]1O[C@H](CO)[C@@H](O)[C@H](O)[C@H]1O [Test sample 1, 2-O-α-D-glucosyl-L-ascorbic acid] |  | − | −
13 | O=C1O[C@H]([C@@H](O)CO)C(O)=C1O[C@H]1O[C@H](CO)[C@@H](O)[C@H](O)[C@H]1O [Test sample 2, 2-O-α-D-glucosyl-L-ascorbic acid] |  | + | 
14 | O=C1O[C@H]([C@@H](O)CO)C(O)=C1O[C@H]1O[C@H](CO)[C@@H](O)[C@H](O)[C@H]1O [Test sample 3, 2-O-α-D-glucosyl-L-ascorbic acid] |  | + | 
15 | O=C1O[C@H]([C@@H](O)CO)C(O)=C1O[C@H]1O[C@H](CO)[C@@H](O)[C@H](O)[C@H]1O [Test sample 4, 2-O-α-D-glucosyl-L-ascorbic acid] |  | − | 
16 | O=C1O[C@H]([C@@H](O)CO)C(O)=C1O[C@H]1O[C@H](CO)[C@@H](O)[C@H](O)[C@H]1O [Test sample 5, 2-O-α-D-glucosyl-L-ascorbic acid] |  | − | 
17 | O=C1O[C@H]([C@@H](O)CO)C(O)=C1O[C@H]1O[C@H](CO)[C@@H](O)[C@H](O)[C@H]1O [Test sample 6, 2-O-α-D-glucosyl-L-ascorbic acid] |  | − | 
18 | O=C1O[C@H]([C@@H](O)CO)C(O)=C1O[C@H]1O[C@H](CO)[C@@H](O)[C@H](O)[C@H]1O [Test sample 7, 2-O-α-D-glucosyl-L-ascorbic acid] |  | − | 
19 | O=C1O[C@H]([C@@H](O)CO)C(O)=C1O[C@H]1O[C@H](CO)[C@@H](O)[C@H](O)[C@H]1O [Test sample 8, 2-O-α-D-glucosyl-L-ascorbic acid] |  | ± | 
20 | O=C1O[C@H]([C@@H](O)CO)C(O)=C1O[C@H]1O[C@H](CO)[C@@H](O)[C@H](O)[C@H]1O [Test sample 9, 2-O-α-D-glucosyl-L-ascorbic acid] |  | + | 
21 | O=C1O[C@H]([C@@H](O)CO)C(O)=C1O[C@H]1O[C@H](CO)[C@@H](O)[C@H](O)[C@H]1O [Test sample 10, 2-O-α-D-glucosyl-L-ascorbic acid] |  | + | +
22 | O=C1O[C@H]([C@@H](O)CO)C(O)=C1O[C@H]1O[C@H](CO)[C@@H](O)[C@H](O)[C@H]1O [Test sample 11, 2-O-α-D-glucosyl-L-ascorbic acid] |  | ± | +
23 | O=C1O[C@H]([C@@H](O)CO)C(O)=C1O[C@H]1O[C@H](CO)[C@@H](O)[C@H](O)[C@H]1O [Test sample 19, 2-O-α-D-glucosyl-L-ascorbic acid] |  | − | −
24 | O=C1O[C@H]([C@@H](O)CO)C(O)=C1O[C@H]1O[C@H](CO)[C@@H](O)[C@H](O)[C@H]1O [Test sample 20, 2-O-α-D-glucosyl-L-ascorbic acid] |  | + | +
25 | O=C1O[C@H]([C@@H](O)CO)C(O)=C1O[C@H]1O[C@H](CO)[C@@H](O)[C@H](O)[C@H]1O [Test sample 21, 2-O-α-D-glucosyl-L-ascorbic acid] |  | − | −
26 | O=C1O[C@H]([C@@H](O)CO)C(O)=C1O[C@H]1O[C@H](CO)[C@@H](O)[C@H](O)[C@H]1O [Test sample 22, 2-O-α-D-glucosyl-L-ascorbic acid] |  | − | −
27 | O=C1O[C@H]([C@@H](O)CO)C(O)=C1O[C@H]1O[C@H](CO)[C@@H](O)[C@H](O)[C@H]1O [Test sample 28, 2-O-α-D-glucosyl-L-ascorbic acid] |  | + | 
